Assay [1] has as its system Human lung cancer cell line A549. As to the kind of experiment: MTT cancer cell cytotoxicity assay, A549. The class given is cell-based. To be noted: Homo sapiens, A549 cells, 48-72 h. The procedure: (§1) Identification of 3-(2-methoxyphenyl)-6-(4-methoxyphenyl)-[1,2,4]triazolo[4,3-a]pyridine and analogs as inhibitors of cell proliferation that were evaluated with standard MTT cancer cell cytotoxicity assay (IC50)
(§2) Human lung cancer cell line A549, breast cancer cell line T47D, liver cancer cell lines HepG2 and SMMC7721 as well as a mouse melanoma cell line B16F10 were used in the study. The cells were cultured in corresponding growth media recommended by American Type Culture Collection (ATCC) with the supplementation of penicillin G (100 U/ml)/streptomycin (100 µg/ml), and 10% fetal bovine serum (Hangzhou Sijiqing Biological Engineering Materials, Co., Ltd. China) at 37° C. in a humidified atmosphere containing 5% CO2. Cells at about 80% confluency were harvested by trypsinization. Cells were centrifuged, re-suspended in fresh growth media and counted. Corresponding numbers of cells were seeded to 96-well cell culture plates (HepG2 cell, T-47D and A549 cells at 3000 cells/well, SMMC-7721 cells at 5000 cells/well and B16F10 cells at 2000 cells/well) in a total volume of […]. Cells were incubated in CO2 incubator over night to allow the cells to attach. In next day, […] of medium containing testing (from 10 μM to 1 nM) or reference compounds was added to each well of the cells. Media without compound were used as 100% control. Cells were treated with each concentration of compounds in triplicates to ensure data accuracy. Cells were incubated with compounds in CO2 incubator for an additional 48-72 h at 37° C. After incubation, cells were removed from the CO2 incubator and […] of 5 mg/ml MTT (3-(4,5-dimethylthiazole-2-yl)-2,5-diphenyltetrazoliumbromide, Sigma) solution in PBS was added to each well. Cells were returned to CO2 incubator and incubated for additional 4 h. After the incubation, media were removed by aspiration and […] DMSO was added to each well. Plates were sealed with aluminum foil and shaked mildly on an orbital shaker for 10 min at room temperature. The absorption was measured at 550 nm with a plate reader (Varioskan Flash, Thermo Fisher Scientific) with 660 nm reading used as background control. The relative absorbance readings were calculated by subtracting readings at 660 nm from that at 550 nm. The relative absorbance was plotted again the concentrations of the testing compounds and the plots were fitted with a one-site lg(IC50) equation using Prism 5 software (GraphPad Software, Inc). The equation used in the curve fitting is as follows: relative absorbance reading=background reading+(maximal reading−brackground reading)/(1+10 ^(compound concentration-log IC50)). The background reading used in the calculation was obtained with 100% cell death using a reference anticancer drug, whereas the maximal reading was obtained in the well with no added compound. The IC50 value calculated from the equation represents the cytotoxic potency of a particular compound.

The test system of assay [2] is liver cancer cell line HepG2. In words: MTT cancer cell cytotoxicity assay, HepG2. It counts as cell-based, human. The conditions noted are these: Homo sapiens, HepG2 cells, 48-72 h. The procedure: as §1, §2
Assay [3] deals with liver cancer cell line SMMC7721. As to the kind of experiment: MTT cancer cell cytotoxicity assay, SMMC7721. It counts as cell-based, human. The conditions noted are these: Homo sapiens, SMMC-7721, SMMC7721 cells, 48-72 h. The protocol:
as §1, §2

Assay [4] relates to breast cancer cell line T47D. As to the kind of experiment: MTT cancer cell cytotoxicity assay, T47D. It counts as cell-based, human. The conditions noted are these: Homo sapiens, T47D cells, 48-72 h. The procedure:
as §1, §2

Molecules are shown by their SMILES.

IC50 data for 22 compounds are collected here from patent publication US9199983B2, “3-aryl-6-aryl-[1,2,4]triazolo[4,3-α]pyridines as inhibitors of cell proliferation and the use thereof” (priority 2010, dated 2015).

As a reminder, the IC50 is the concentration needed to halve the response being measured. Read a low IC50 as greater potency in that assay. As for `COc1ccccc1-c1nnc2ccc(-c3ccc(C)cc3F)cn12` [Example 4, 6-(2-Fluoro-4-methylphenyl)-3-(2-methoxyphenyl)-[1,2,4]triazolo[4,3-a]pyridine], the IC50 in assay [1] was determined as 276 nM; in assay [2] it was 246 nM; in assay [3] it was 80 nM; in assay [4] it was 326 nM.
In the same order, the values of `COc1ccc(-c2ccc3nnc(-c4ccccc4OC)n3c2)c(C)c1` [Example 8, 6-(4-Methoxy-2-methylphenyl)-3-(2-methoxyphenyl)-[1,2,4]triazolo[4,3-a]pyridine] are 91 nM, 55 nM, 24 nM and 103 nM.
For the compound `COc1cc(-c2ccc3nnc(-c4ccccc4OC)n3c2)ccc1OCc1ccccc1` [Example 9, 6-(4-Benzyloxy-3-methoxyphenyl)-3-(2-methoxyphenyl)-[1,2,4]triazolo[4,3-a]pyridine], the half-maximal inhibitory concentration (IC50) in assay [1], in assay [2], in assay [3] and in assay [4] was over 10000 nM in each case.
For `COc1ccccc1-c1nnc2ccc(-c3ccc(C)c([N+](=O)[O-])c3)cn12` [Example 10, 3-(2-Methoxyphenyl)-6-(4-methyl-3-nitrophenyl)-[1,2,4]triazolo[4,3-a]pyridine], the IC50 in assay [1] is over 10000 nM; in assay [2] it was 382 nM; in assay [3] it was 618 nM; in assay [4] it was 1370 nM.
For the compound `COc1ccccc1-c1nnc2ccc(-c3cccc(O)c3)cn12` [Example 12, 6-(3-Hydroxyphenyl)-3-(2-methoxyphenyl)-[1,2,4]triazolo[4,3-a]pyridine], the IC50 in assay [1] is 7180 nM; in assay [2], 2950 nM; in assay [3] it was over 10000 nM; in assay [4], over 10000 nM.
With `COc1ccccc1-c1nnc2ccc(-c3ccc(O)cc3)cn12` [Example 13, 6-(4-Hydroxyphenyl)-3-(2-methoxyphenyl)-[1,2,4]triazolo[4,3-a]pyridine], the IC50 worked out at 2350 nM in assay [1], 1280 nM in assay [2], 1010 nM in assay [3] and 660 nM in assay [4].
As for `COc1ccccc1-c1nnc2ccc(-c3ccc4c(c3)OCO4)cn12` [Example 14, 6-(Benzo[d][1,3]dioxol-5-yl)-3-(2-methoxyphenyl)-[1,2,4]triazolo[4,3-a]pyridine], the half-inhibitory concentration (IC50) worked out at 1270 nM in assay [1], 797 nM in assay [2], 110 nM in assay [3] and 1440 nM in assay [4].
Taken in the same sequence, the figures for `COc1ccc(-c2ccc3nnc(-c4ccccc4OC)n3c2)cn1` [Example 15, 3-(2-Methoxyphenyl)-6-(6-methoxypyridin-3-yl)-[1,2,4]triazolo[4,3-a]pyridine] were 1030 nM, 1730 nM, 1110 nM and 2010 nM.
Turning to `CCOc1ccc(-c2ccc3nnc(-c4ccccc4OC)n3c2)cc1C` [Example 16, 6-(4-Ethoxy-3-methylphenyl)-3-(2-methoxyphenyl)-[1,2,4]triazolo[4,3-a]pyridine], the IC50 in assay [1] amounted to 160 nM; in assay [2] it was 107 nM; in assay [3], 33 nM; in assay [4], 152 nM.
Taken in the same sequence, the figures for `COc1ncc(-c2ccc3nnc(-c4ccccc4OC)n3c2)cn1` [Example 18, 3-(2-Methoxyphenyl)-6-(2-methoxypyrimidin-5-yl)-[1,2,4]triazolo[4,3-a]pyridine] were over 10000 nM, over 10000 nM, over 10000 nM and over 10000 nM.
In the same order, the values of `COc1ccccc1-c1nnc2ccc(-c3ccc(C)c(Cl)c3)cn12` [Example 19, 6-(3-Chloro-4-methylphenyl)-3-(2-methoxyphenyl)-[1,2,4]triazolo[4,3-a]pyridine] are 221 nM, 157 nM, 68 nM and 169 nM.
In the same order, the values of `COc1ccccc1-c1nnc2ccc(-c3ccc([N+](=O)[O-])c(OC)c3)cn12` [Example 21, 6-(3-Methoxy-4-nitrophenyl)-3-(2-methoxyphenyl)-[1,2,4]triazolo[4,3-a]pyridine] are over 10000 nM, 4250 nM, over 10000 nM and over 10000 nM.
On to `COc1ccccc1-c1nnc2ccc(-c3ccc(C)cc3)cn12` [Example 22, 3-(2-Methoxyphenyl)-6-(4-methylphenyl)-[1,2,4]triazolo[4,3-a]pyridine], for which the half-inhibitory concentration (IC50) in assay [1] was determined as 192 nM; in assay [2], 224 nM; in assay [3], 51 nM; in assay [4], 147 nM.
As for `COc1ccccc1-c1nnc2ccc(-c3cccc(C)c3)cn12` [Example 23, 3-(2-Methoxyphenyl)-6-(3-methylphenyl)-[1,2,4]triazolo[4,3-a]pyridine], the IC50 amounted to 215 nM in assay [1], 180 nM in assay [2], 76 nM in assay [3] and 134 nM in assay [4].
Taken in the same sequence, the figures for `COc1ccccc1-c1nnc2ccc(-c3ccc(C)cc3C)cn12` [Example 25, 6-(2,4-Dimethylphenyl)-3-(2-methoxyphenyl)-[1,2,4]triazolo[4,3-a]pyridine] were 725 nM, 724 nM, 114 nM and 415 nM.
Taken in the same sequence, the figures for `COc1cc(-c2ccc3nnc(-c4ccccc4OC)n3c2)ccc1C` [Example 28, 6-(3-Methoxy-4-methylphenyl)-3-(2-methoxyphenyl)-[1,2,4]triazolo[4,3-a]pyridine] were 886 nM, 448 nM, 178 nM and 495 nM.
On to `COc1ccccc1-c1nnc2ccc(-c3cc(OC)c(OC)c(OC)c3)cn12` [Example 29, 3-(2-Methoxyphenyl)-6-(3,4,5-trimethoxyphenyl)-[1,2,4]triazolo[4,3-a]pyridine], for which the IC50 in assay [1], in assay [2], in assay [3] and in assay [4] was over 10000 nM in each case.
In the case of `COc1ccccc1-c1nnc2ccc(-c3cc(C)c(OC)c(C)c3)cn12` [Example 30, 6-(3,5-Dimethyl-4-methoxyphenyl)-3-(2-methoxyphenyl)-[1,2,4]triazolo[4,3-a]pyridine], the IC50 in assay [1] is over 10000 nM; in assay [2], 2370 nM; in assay [3], 1760 nM; in assay [4], 5160 nM.
Consider `COc1ccc(-c2ccc3nnc(-c4ccccc4OC)n3c2)cc1OC` [Example 31, 6-(3,4-Dimethoxyphenyl)-3-(2-methoxyphenyl)-[1,2,4]triazolo[4,3-a]pyridine], for which the IC50 in assay [1] was found to be 241 nM; in assay [2], 474 nM; in assay [3], 492 nM; in assay [4], 765 nM.
In the same order, the values of `COc1ccccc1-c1nnc2ccc(-c3ccc(C)c(C)c3)cn12` [Example 32, 6-(3,4-Dimethylphenyl)-3-(2-methoxyphenyl)-[1,2,4]triazolo[4,3-a]pyridine] are 157 nM, 83 nM, 39 nM and 148 nM.
Taken in the same sequence, the figures for `COc1ccccc1-c1nnc2ccc(-c3ccc(C)c(F)c3)cn12` [Example 33, 6-(3-Fluoro-4-methylphenyl)-3-(2-methoxyphenyl)-[1,2,4]triazolo[4,3-a]pyridine] were 630 nM, 772 nM, 164 nM and 804 nM.
As to `COc1ccc(-c2ccc3nnc(-c4ccccc4OC)n3c2)c(OC)c1` [Example 36, 6-(2,4-Dimethoxyphenyl)-3-(2-methoxyphenyl)-[1,2,4]triazolo[4,3-a]pyridine], the half-inhibitory concentration (IC50) in assay [1] came out at 74 nM; in assay [2], 78 nM; in assay [3], 29 nM; in assay [4], 315 nM.
